Measurements reported in PubChem BioAssay (NCI).
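Cells were grown in 96-well plates and exposed to each compound for 48 hours at five concentrations; endpoints were interpolated linearly between bracketing concentrations, or set to the highest concentration if not reached. TGI marks complete inhibition of growth.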

What was measured:
Assay in all cases: DTP human tumour cell line panel, 48 h
NCI-H226 lung = tested on: NCI-H226 lung
OVCAR-3 ovarian = tested on: OVCAR-3 ovarian
HOP-92 NSCLC = tested on: HOP-92 NSCLC
SNB-19 CNS = tested on: SNB-19 CNS
UACC-257 melanoma = tested on: UACC-257 melanoma
MCF7 breast = tested on: MCF7 breast
RPMI-8226 leukemia = tested on: RPMI-8226 leukemia
OVCAR-8 ovarian = tested on: OVCAR-8 ovarian
DU-145 prostate = tested on: DU-145 prostate
786-0 renal = tested on: 786-0 renal
BT-549 breast = tested on: BT-549 breast

Structure (SMILES)	TGI (NCI-H226 lung)	TGI (OVCAR-3 ovarian)	TGI (HOP-92 NSCLC)	TGI (SNB-19 CNS)	TGI (UACC-257 melanoma)	TGI (MCF7 breast)	TGI (RPMI-8226 leukemia)	TGI (OVCAR-8 ovarian)	TGI (DU-145 prostate)	TGI (786-0 renal)	TGI (BT-549 breast)
COc1cc(C2c3cc4c(cc3[C@@H](Nc3cccc([N+](=O)[O-])c3)C3COC(=O)[C@H]23)OCO4)cc(OC)c1O (some centres not stated)	7.94 µM	33.2 µM	27.7 µM	> 31.4 µM	35.2 µM	> 100 µM	32.1 µM	> 32.9 µM			
CC(Cc1ccccc1)NC1=NCCO1 (configuration not stated)	> 100 µM		69.1 µM	> 100 µM		> 100 µM	67.3 µM	> 100 µM			
CC(NC(C#N)CC12CC3CC(CC(C3)C1)C2)c1ccccc1 (configuration not stated)		71.9 µM	31.5 µM	> 100 µM	> 100 µM	> 100 µM	44 µM	> 100 µM	> 100 µM		
CSCCC(NC(=O)OCc1ccccc1)NC(=O)OCc1ccccc1	> 100 µM	> 100 µM	> 100 µM	> 100 µM	> 100 µM		> 100 µM	> 100 µM	> 100 µM		
CC(NC(=O)C(N)CC(=O)O)NC(=O)N(C)C(C)(C)C (configuration not stated)	> 100 µM	> 100 µM		> 100 µM	> 100 µM	> 100 µM	> 100 µM	> 100 µM	> 100 µM	> 100 µM	> 100 µM
C#CC(O)/C=C/C(O)CCCC(O)CC#CC(O)C#CC(O)CCCC(O)/C=C/CCCC(=O)CCCCCCCCCCCCCCCC(O)C(O)C#CC(=O)O (configuration not stated)	> 50 µM		> 50 µM	> 50 µM	> 50 µM	> 50 µM	> 50 µM	> 50 µM	> 50 µM	> 50 µM	
N#Cc1ccc(Oc2nc3ccc(C(F)(F)F)cc3nc2-c2ccccc2)cc1		44.8 µM	27.5 µM	41.2 µM	54.7 µM	44.1 µM		34.4 µM	34 µM	30.8 µM	> 100 µM
O=C1c2ccccc2C(=O)c2c(O)ccc(O)c21		94.1 µM	> 100 µM	> 100 µM	> 100 µM		> 100 µM	> 100 µM		> 100 µM	
O=[N+]([O-])c1ccc2c(c1)c(S(=O)(=O)O)cc1nonc12	> 100 µM	> 100 µM	> 100 µM	> 100 µM	> 100 µM	> 100 µM	> 100 µM	> 100 µM		> 100 µM	> 100 µM
CC1(CC2=C(C(=O)NCCO[Si](C)(C)C(C)(C)C)C3(OCCO3)C2=O)OCCO1	> 100 µM	> 100 µM	> 100 µM	> 100 µM	> 100 µM	> 100 µM		> 100 µM	> 100 µM	> 100 µM	> 100 µM
CCSc1nc(N)c2c(-c3ccccc3)c3c(nc2n1)CCC3		> 100 µM		> 100 µM	> 100 µM	> 100 µM	> 100 µM	> 100 µM	> 100 µM		> 100 µM
CC(=O)NC(Cc1ccc(OP(=O)(OCc2ccc([N+](=O)[O-])o2)N(C)CCCCCl)cc1)C(=O)NC(C)c1ccc(OCC2CCCCC2)c(C(N)=O)c1 (configuration not stated)	21.2 µM	5.04 µM		14.9 µM	3.78 µM	5.23 µM	3.96 µM	21.8 µM	15.2 µM	12.4 µM	
